Assay results reported in ChEMBL document CHEMBL5441142, “Probing the Merck KGaA Open Global health library for novel starting points for anti-schistosomal drug discovery” (2024).
The source made the active and inactive calls.

Tests used:
Schistosoma mansoni [1] = experiment: In vitro activity screen on S. mansoni schistosomula at 10 uM. Compound-induced effects were assessed by quantifying larva motility and phenotype using Roboworm.; format: functional, organism-based; set-up: test concentration 10 uM, temperature 37 degree C, time incubation 72 h; conditions: Puerto Rican
Schistosoma mansoni [2] = experiment: Ex vivo activity screen on S. mansoni adult worms at 20 uM. Parasite motility after compound treatment was assessed at 72 h using the WHO-TDR scoring metric.; format: functional, organism-based; set-up: test concentration 20 uM, temperature 37 degree C; conditions: Puerto Rican

`COc1ccc(OCCCO)cc1-c1cn2cc(-c3nnc(NCCCCc4ccccc4)o3)ccc2n1` was tested, and the In vitro activity (Schistosoma mansoni [1]) was “Active” and the Ex-vivo screening (Schistosoma mansoni [2]) was “inactive”.

For `CNS(=O)(=O)c1ccccc1Nc1nc(Nc2cc(OC)c(OC)cc2C)ncc1Br`, the In vitro activity (Schistosoma mansoni [1]) was “Active” and the Ex-vivo screening (Schistosoma mansoni [2]) was “inactive”.

In the case of `Cc1cn(-c2ccc(Nc3ncn(Cc4ccc(Cl)cc4)n3)cc2C#N)cn1`, the In vitro activity (Schistosoma mansoni [1]) is reported as “Active” and the Ex-vivo screening (Schistosoma mansoni [2]) is reported as “inactive”.

With `COc1cc(OC)c(CCNC(=O)c2cn3cc(-c4cc(OC)ccc4OC)nc3s2)c(OC)c1` the In vitro activity (Schistosoma mansoni [1]) was “Active” and the Ex-vivo screening (Schistosoma mansoni [2]) was “inactive”.

In the case of `CNS(=O)(=O)c1ccccc1Nc1nc(Nc2ccc(N3CCOCC3)cc2OC)ncc1Br`, the In vitro activity (Schistosoma mansoni [1]) is reported as “Active” and the Ex-vivo screening (Schistosoma mansoni [2]) is reported as “inactive”.

In the case of `CN(C)C(=O)/C=C/C(=O)c1ccc(SCc2ccc(Cl)cc2Cl)cc1`, the In vitro activity (Schistosoma mansoni [1]) is reported as “Active” and the Ex-vivo screening (Schistosoma mansoni [2]) is reported as “inactive”.
